This note sets out measurements from ChEMBL document CHEMBL1201862, “PubChem BioAssay data set” (2004).

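Step 1: Grow cells in 96-well plates. Step 2: Expose to compound for 48 hours at 5 concentrations. Step 3: Interpolate endpoints linearly; if unreached, use highest concentration. Abbreviation: GI50, concentration required for 50% inhibition of growth.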 Activity calls are given as the source filed them. Rule as the data show it: active = GI50 up to about 1.1 µM and inactive = higher.

What all share (assay): inhibition of tumour cell growth, NCI panel, 48 h
Assay [1] concerns KM12.
Assay [2] deals with SR.
For assay [3], the system named is CCRF-CEM.
The subject of assay [4] is NCI-H23.
Assay [5] deals with OVCAR-3.
Assay [6] relates to MDA-N.
Assay [7] relates to BT-549.
For assay [8], the system named is UACC-62.
For assay [9], the system named is HCT-116.
Assay [10] deals with SF-295.
Assay [11] deals with SK-OV-3.
For assay [12], the system named is SW-620.
Assay [13] deals with HOP-92.
Assay [14] concerns MDA-MB-435.
Assay [15] relates to A549.
Assay [16] relates to DU-145.
For assay [17], the system named is T47D.
Assay [18] concerns OVCAR-4.
Assay [19] has as its system OVCAR-8.
The test system of assay [20] is SF-268.

With `CCOC(=O)CC1C(C(=O)OCC)=Cn2c([nH]c3cccc4cccc2c43)=C1C(=O)OCC` (centres undefined), the GI50 in assay [1], in [2], in assay [3], in [4], in [5] and in [6] was > 100 µM (inactive) throughout. Further, the GI50 in assay [7], in assay [8], in assay [9], in assay [10], in assay [11] and in assay [12] was > 100 µM (inactive) throughout. In addition, the GI50 in assay [13] is > 100 µM (inactive); in [14], 54.3 µM (inactive); in [15], > 100 µM (inactive); in [16], > 100 µM (inactive); in [17], 43.8 µM (inactive); in assay [18], > 100 µM (inactive). Besides, in [19], the GI50 is > 100 µM (inactive).
Regarding `CC/C=C\C=C/C(=O)N/C=C/CCC`, the GI50 in assay [1] was > 100 µM (inactive); in assay [2], 33.3 µM (inactive); in assay [3] it was 4.27 µM (inactive); in [4], > 100 µM (inactive); in assay [20] it was > 100 µM (inactive); in assay [5] it was 58.3 µM (inactive). For the same compound, the GI50 in assay [6] was > 100 µM (inactive); in assay [7], > 100 µM (inactive); in assay [8] it was 47.2 µM (inactive); in [9] it was 38.9 µM (inactive); in assay [11], > 100 µM (inactive); in assay [12], > 100 µM (inactive). The GI50 is 27.7 µM (inactive) in assay [13]; > 100 µM (inactive) in assay [14]; > 100 µM (inactive) in assay [15]; > 100 µM (inactive) in [16]; 62.8 µM (inactive) in assay [17]; > 100 µM (inactive) in assay [18]. In assay [19], the GI50 is > 100 µM (inactive).
As to `Nc1c2ccccc2nc2ccc3c(=O)cc(-c4ccccc4)oc3c12`, the GI50 in [1] was 0.596 µM (active); in assay [2] it was 0.393 µM (active); in [3], 0.445 µM (active); in assay [4] it was 1.53 µM (inactive); in assay [20] it was 1.22 µM (inactive); in assay [5], 1.42 µM (inactive). Besides, the GI50 in assay [6] is 0.815 µM (active); in assay [7] it was 2.8 µM (inactive); in assay [8] it was 1.6 µM (inactive); in assay [9], 0.299 µM (active); in [10], 0.719 µM (active); in assay [11], 1.83 µM (inactive). The GI50 in [12] was 0.327 µM (active); in [13], 1.24 µM (inactive); in [14], 1.27 µM (inactive); in assay [15], 1.4 µM (inactive); in assay [16], 1.75 µM (inactive); in assay [17], 1.17 µM (inactive). The results for the GI50 in assay [18] and in assay [19] were 0.426 µM (active) and 0.611 µM (active), respectively.
Regarding `Cc1oc(N)c(S(=O)(=O)/C(C#N)=C/c2ccccc2[N+](=O)[O-])c1C`, the GI50 in [1] was 25.2 µM (inactive); in assay [2], 14 µM (inactive); in [3] it was 24.1 µM (inactive); in assay [4], 23.6 µM (inactive); in assay [20], 31 µM (inactive); in assay [5], 21.4 µM (inactive). Also, the GI50 in [6] was 20.7 µM (inactive); in assay [7] it was 17.5 µM (inactive); in assay [8], 20.7 µM (inactive); in assay [9] it was 20.8 µM (inactive); in [10] it was 33.9 µM (inactive); in assay [11] it was > 100 µM (inactive). Also, the GI50 in assay [12] was 26.6 µM (inactive); in [13], 34.7 µM (inactive); in assay [14], 32.7 µM (inactive); in assay [15] it was 25.2 µM (inactive); in assay [16], 62.4 µM (inactive); in [17] it was 27 µM (inactive). Besides, the GI50 in [18] was 38.5 µM (inactive).
For the compound `COc1cc2c(cc1OC)C(=O)N(c1ccc(O)cc1)C2=O`, the GI50 in assay [2], in assay [3], in assay [4], in assay [20], in assay [5] and in assay [6] was > 100 µM (inactive) in each case. Also, the GI50 in assay [7], in [8], in assay [9], in [10], in [11] and in assay [12] was > 100 µM (inactive) each time. Moreover, the GI50 in assay [13], in assay [14], in assay [15], in assay [16], in [17] and in assay [18] was > 100 µM (inactive) in each case. For the same compound, the GI50 in [19] is > 100 µM (inactive).
As for `CC(C)(C)c1cc(C=C(C#N)C#N)cc(C(C)(C)C)c1O` [TYRPHOSTIN A9], the GI50 in [1] was 0.395 µM (active); in [2], 0.396 µM (active); in assay [3] it was 0.33 µM (active); in assay [4] it was 0.809 µM (active); in assay [20] it was 0.344 µM (active); in assay [5] it was 0.258 µM (active). Besides, the GI50 in [6] was 0.608 µM (active); in [7], 0.316 µM (active); in assay [8], 0.328 µM (active); in assay [9], 0.277 µM (active); in assay [10], 0.455 µM (active); in [12], 0.546 µM (active). In addition, the GI50 was 0.0527 µM (active) in assay [13]; 0.76 µM (active) in assay [14]; 0.316 µM (active) in assay [15]; 0.372 µM (active) in assay [16]; 0.135 µM (active) in assay [17]; 0.724 µM (active) in assay [18]. Besides, in assay [19], the GI50 is 0.303 µM (active).
For the compound `COc1ccc(C(=O)O[C@H]2CC[C@@]3(C)[C@@H]4CC[C@H]5[C@]6(O)C[C@H](O)[C@@]7(O)[C@@H](CN8C[C@@H](C)CC[C@H]8[C@@]7(C)O)[C@]6(O)C[C@@]53OC24O)cc1OC` [VERATRIDINE], the GI50 in assay [1] is > 100 µM (inactive); in assay [2], 74.8 µM (inactive); in assay [4], > 100 µM (inactive); in assay [20], > 100 µM (inactive); in [5] it was > 100 µM (inactive); in [6], > 100 µM (inactive). Also, the GI50 in assay [7], in assay [8], in [9], in assay [10], in assay [11] and in [12] was > 100 µM (inactive) throughout. For the same compound, the GI50 in [13], in assay [14], in assay [15], in assay [16], in [17] and in assay [18] was > 100 µM (inactive) in each case. For the same compound, the GI50 in assay [19] is > 100 µM (inactive).
